SMILES strings stand for the structures.

One molecule from patent US9309537B2, “Chimeric rat produced using rat embryonic stem cells in the presence of an ES cell differentiation suppressant” (National Cancer Center, priority 2009, dated 2016) can be followed below.

The assay relates to rat ES cells. The experiment in a line: Culture of established rat ES cells with PAC factor or Y factor alone (colony morphology, alkaline phosphatase). The assay is classed as cell-based. The settings on record: ES cell culture medium on MEF.

Turning to `C[C@@H](N)[C@H]1CC[C@H](C(=O)Nc2ccncc2)CC1` [Y, Y-27632], the alkaline phosphatase activity entry is “did not exhibit alkaline phosphatase activity”; the “undifferentiated state and colony morphology of established rat ES cells” value is “unable to maintain the undifferentiation state”.
